Test results: PubChem BioAssay (NCI)
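Method: 48-hour compound exposure of cells in 96-well plates, five concentrations, linear interpolation of endpoints. GI50 marks 50% less growth. TGI: concentration producing complete growth inhibition.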

Columns and labels:
Assay in all cases: DTP human tumour cell line panel, 48 h
[1] = tested on: SNB-19 CNS
[2] = tested on: HL-60(TB) leukemia
[3] = tested on: SK-MEL-2 melanoma
[4] = tested on: UACC-257 melanoma
[5] = tested on: NCI-H23 lung
[6] = tested on: CCRF-CEM leukemia
[7] = tested on: IGROV1 ovarian
[8] = tested on: SF-295 CNS
[9] = tested on: SNB-75 CNS
[10] = tested on: UACC-62 melanoma
[11] = tested on: HCC-2998 colon
[12] = tested on: HOP-92 NSCLC
[13] = tested on: SF-268 CNS
[14] = tested on: HS 578T breast
[15] = tested on: HCT-116 colon
[16] = tested on: SK-MEL-5 melanoma
[17] = tested on: MCF7 breast
[18] = tested on: A498 renal
[19] = tested on: ACHN renal
[20] = tested on: M14 melanoma
[21] = tested on: SK-MEL-28 melanoma
[22] = tested on: COLO 205 colon
[23] = tested on: PC-3 prostate
[24] = tested on: U251 CNS
[25] = tested on: HCT-15 colon
[26] = tested on: SN12C renal
[27] = tested on: MOLT-4 leukemia
[28] = tested on: SK-OV-3 ovarian
[29] = tested on: OVCAR-4 ovarian
[30] = tested on: MDA-MB-435
[31] = tested on: MALME-3M melanoma
[32] = tested on: CAKI-1 renal
[33] = tested on: HT29 colon
[34] = tested on: BT-549 breast
[35] = tested on: OVCAR-5 ovarian
[36] = tested on: OVCAR-3 ovarian
[37] = tested on: UO-31 renal
[38] = tested on: 786-0 renal
[39] = tested on: MDA-MB-231 breast
[40] = tested on: T-47D breast
[41] = tested on: NCI/ADR-RES ovarian
[42] = tested on: NCI-H522 lung
[43] = tested on: TK-10 renal
[44] = tested on: RPMI-8226 leukemia
[45] = tested on: DU-145 prostate
[46] = tested on: HOP-62 NSCLC
[47] = tested on: NCI-H226 lung
[48] = tested on: SF-539 CNS
[49] = tested on: LOX IMVI melanoma
[50] = tested on: OVCAR-8 ovarian
[51] = tested on: K-562 leukemia
[52] = tested on: A549 NSCLC
[53] = tested on: KM12 colon
[54] = tested on: EKVX NSCLC
[55] = tested on: NCI-H460 lung
[56] = tested on: SW-620 colon
[57] = tested on: RXF 393 renal

In the case of COc1cc2c3c(n(CCCNC4=NCCS4)c(=O)c2cc1OC)-c1cc2c(cc1C3=O)OCO2, the GI50 [1] was 1.03 µM, the TGI [1] was > 100 µM and the GI50 [2] was 0.142 µM. For the same molecule, the GI50 [3] was 9.98 µM, the TGI [3] was > 80.6 µM and the GI50 [4] was 1.21 µM. The TGI [4] was 5.67 µM, the GI50 [5] was < 0.0123 µM and the TGI [5] was 0.128 µM. For the same molecule, the GI50 [6] was < 0.01 µM, the GI50 [7] was 0.197 µM and the TGI [7] was > 100 µM. The GI50 [8] was < 0.01 µM, the TGI [8] was 1.42 µM and the TGI [9] was 1.44 µM. The GI50 [10] was 0.0559 µM, the TGI [10] was 1.66 µM and the GI50 [11] was < 0.01 µM. The TGI [12] was 1.95 µM, the GI50 [13] was 0.188 µM and the TGI [13] was 5.19 µM. The GI50 [14] was 1.4 µM, the TGI [14] was 3.85 µM and the GI50 [15] was < 0.01 µM. For the same molecule, the TGI [15] was 0.127 µM, the GI50 [16] was 0.236 µM and the TGI [16] was 2.23 µM. The GI50 [17] was < 0.01 µM, the GI50 [18] was 1.52 µM and the TGI [18] was 7.68 µM. The GI50 [19] was < 0.01 µM, the TGI [19] was 0.135 µM and the GI50 [20] was < 0.01 µM. It also gave a TGI [20] of 0.201 µM, a GI50 [21] of 1.12 µM and a TGI [21] of 3.21 µM. The TGI [22] was 4.09 µM, the GI50 [23] was 0.722 µM and the TGI [23] was 3.51 µM. The GI50 [24] was < 0.01 µM, the TGI [24] was 0.197 µM and the GI50 [25] was 0.823 µM. For the same molecule, the TGI [25] was 3.67 µM, the GI50 [26] was < 0.0255 µM and the TGI [26] was 0.408 µM. The GI50 [27] was < 0.01 µM, the TGI [28] was 3.18 µM and the GI50 [29] was 1.82 µM. It also gave a TGI [29] of 6.1 µM, a TGI [30] of 1.83 µM and a GI50 [31] of 1.44 µM. For the same molecule, the TGI [31] was 5.41 µM, the GI50 [32] was < 0.01 µM and the TGI [32] was 0.749 µM. The GI50 [33] was < 0.0347 µM, the TGI [33] was 0.756 µM and the GI50 [34] was 1.73 µM. The TGI [34] was 9.3 µM, the GI50 [35] was 0.668 µM and the TGI [35] was 2.08 µM. For the same molecule, the GI50 [36] was 0.203 µM, the TGI [36] was 2.09 µM and the GI50 [37] was 0.147 µM. The TGI [37] was > 100 µM, the GI50 [38] was < 0.01 µM and the TGI [38] was 0.0371 µM. For the same molecule, the GI50 [39] was 0.465 µM, the TGI [39] was 1.02 µM and the TGI [40] was 2.7 µM. For the same molecule, the GI50 [41] was < 0.0183 µM, the TGI [41] was 0.319 µM and the GI50 [42] was 0.174 µM. For the same molecule, the TGI [42] was > 56.2 µM, the GI50 [43] was 4.59 µM and the TGI [43] was 10.6 µM. The GI50 [44] was < 0.0145 µM, the TGI [44] was 0.296 µM and the GI50 [45] was < 0.01 µM. The TGI [45] was 1.31 µM, the GI50 [46] was < 0.01 µM and the GI50 [47] was 0.0456 µM. The TGI [47] was 0.913 µM, the GI50 [48] was < 0.0122 µM and the TGI [48] was 0.283 µM. The GI50 [49] was < 0.01 µM, the TGI [49] was 0.232 µM and the TGI [50] was 2.11 µM. The GI50 [51] was < 0.01 µM, the TGI [51] was 0.631 µM and the GI50 [52] was < 0.01 µM. The TGI [52] was 1.33 µM, the GI50 [53] was 1.11 µM and the TGI [53] was 3.11 µM. The GI50 [54] was 1.79 µM and the TGI [54] was 8.8 µM.

O=S(=O)(c1ccccc1)n1c(C(O)c2ccccc2)cc2ccccc21 (stereo not given) gave a TGI [1] of 26.7 µM, a TGI [2] of 34.9 µM and a TGI [3] of 31.3 µM. It also gave a TGI [4] of 34.4 µM, a TGI [5] of 41.9 µM and a TGI [6] of 28.9 µM. For the same molecule, the TGI [7] was 35.4 µM, the TGI [8] was 32.2 µM and the TGI [9] was 35.7 µM. It also gave a TGI [10] of 28 µM, a TGI [11] of 33.2 µM and a TGI [12] of 38.4 µM. It also gave a TGI [13] of 38.5 µM, a TGI [14] of 27.9 µM and a TGI [15] of 34.6 µM. It also gave a TGI [16] of 32.4 µM, a TGI [17] of 40.9 µM and a TGI [18] of 26.5 µM. The TGI [19] was 29.1 µM, the TGI [20] was 28.1 µM and the TGI [21] was 39.9 µM. For the same molecule, the TGI [22] was 45.5 µM, the TGI [23] was 30.2 µM and the TGI [55] was > 100 µM. The TGI [24] was 43.7 µM, the TGI [25] was 61.3 µM and the TGI [27] was > 100 µM. It also gave a TGI [28] of 29 µM, a TGI [29] of 50.2 µM and a TGI [30] of 36.4 µM. The TGI [31] was 39.2 µM, the TGI [32] was 47.3 µM and the TGI [33] was 26.2 µM. For the same molecule, the TGI [34] was 32.2 µM, the TGI [35] was 30.9 µM and the TGI [36] was 30.3 µM. The TGI [37] was 24 µM, the TGI [38] was 29.6 µM and the TGI [39] was 49.2 µM. It also gave a TGI [40] of 65.8 µM, a TGI [41] of 30.3 µM and a TGI [43] of 33.6 µM. The TGI [44] was > 100 µM, the TGI [45] was > 100 µM and the TGI [46] was 31.8 µM. For the same molecule, the TGI [47] was 29.3 µM, the TGI [56] was 64.7 µM and the TGI [48] was 30.8 µM. For the same molecule, the TGI [49] was > 100 µM, the TGI [57] was 30.5 µM and the TGI [50] was 49.9 µM. The TGI [51] was > 100 µM, the TGI [52] was 35.3 µM and the TGI [53] was 30.3 µM. For the same molecule, the TGI [54] was 41.6 µM.
